# Literature values as cited in patent US8912167B2, “Heparin-based compositions and methods for the inhibition of metastasis” (priority 2011, dated 2014).
# Settings: under physiological conditions
substance,measurement,value
tetra-[5-(L)-lysyl-amino-O-methylsalicylamide],binding to heparin,bind heparin tightly and essentially irreversibly
